Source: patent US7276502B2, “Thiazoles useful as inhibitors of protein kinases” (Vertex Pharmaceuticals Incorporated, priority 2003, dated 2007)

What was measured:
[1] = target: T1, ZAP-70 (Homo sapiens, UniProt P43403); assay: ZAP-70 inhibition assay (standard coupled enzyme assay); format: biochemical; details: 100 μM ATP, 20 μM poly-4EY peptide, 30° C., 60 nM ZAP-70
T1 sequence (P43403 1-619): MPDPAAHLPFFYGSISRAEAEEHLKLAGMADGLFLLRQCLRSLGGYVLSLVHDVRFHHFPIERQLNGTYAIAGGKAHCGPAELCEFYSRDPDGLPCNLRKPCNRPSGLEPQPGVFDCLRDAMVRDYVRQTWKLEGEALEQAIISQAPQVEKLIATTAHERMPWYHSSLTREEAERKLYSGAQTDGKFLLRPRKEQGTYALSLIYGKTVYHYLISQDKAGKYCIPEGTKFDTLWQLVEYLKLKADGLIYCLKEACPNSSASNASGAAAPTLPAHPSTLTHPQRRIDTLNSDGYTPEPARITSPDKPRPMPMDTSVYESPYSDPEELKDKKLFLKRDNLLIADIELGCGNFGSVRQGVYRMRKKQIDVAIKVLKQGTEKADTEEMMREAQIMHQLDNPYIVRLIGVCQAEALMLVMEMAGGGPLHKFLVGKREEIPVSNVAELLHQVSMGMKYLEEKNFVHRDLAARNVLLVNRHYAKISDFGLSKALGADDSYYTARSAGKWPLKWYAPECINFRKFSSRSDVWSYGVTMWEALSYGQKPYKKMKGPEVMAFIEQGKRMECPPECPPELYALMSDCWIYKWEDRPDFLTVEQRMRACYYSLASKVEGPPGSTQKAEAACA
Method: Compounds were screened for their ability to inhibit ZAP-70 using a standard coupled enzyme assay (Fox et al., Protein Sci. 1998, 7, 2249). Assays were carried out in a mixture of 100 mM HEPES (pH 7.5), 10 mM MgCl2, 25 mM NaCl, 2 mM DTT and 3% DMSO. Final substrate concentrations in the assay were 100 μM ATP (Sigma Chemicals) and 20 μM peptide (poly-4EY, Sigma Chemicals). Assays were carried out at 30° C. and 60 nM ZAP-70. Final concentrations of the components of the coupled enzyme system were 2.5 mM phosphoenolpyruvate, 300 μM NADH, 30 μg/ml pyruvate kinase and 10 μg/ml lactate dehydrogenase.
An assay stock buffer solution was prepared containing all of the reagents listed above, with the exception of ZAP-70 and the test compound of interest of the present invention. 55 μl of the stock solution was placed in a 96 well plate followed by addition of 2 μl of DMSO stock containing serial dilutions of the test compound of the present invention (typically starting from a final concentration of 15 μM). The plate was preincubated for 10 minutes at 30° C. and the reaction initiated by addition of 10 μl of enzyme (final concentration 60 nM). Initial reaction rates were determined with a Molecular Devices SpectraMax Plus plate reader over a 15 minute time course. Ki data was calculated from non-linear regression analysis using the Prism software package (GraphPad Prism version 3.0a for Macintosh, GraphPad Software, San Diego Calif., USA).

[2] = target: SYK (Homo sapiens, UniProt P43405); assay: SYK inhibition assay (standard coupled enzyme assay); format: biochemical; details: coupled enzyme assay, 200 μM ATP, 4 μM poly Gly-Tyr peptide, 30° C.; read-out: Ki (SYK)
Method: Reactions were carried out in 100 mM HEPES (pH 7.5), 10 mM MgCl2, 25 mM NaCl, 1 mM DTT and 1.5% DMSO. Final substrate concentrations in the assay were 200 μM ATP (Sigma chemical Co.) and 4 μM poly Gly-Tyr peptide (Sigma Chemical Co.). Assays were carried out at 30° C. and 200 nM SYK. Final concentrations of the components of the coupled enzyme system were 2.5 mM phosphoenolpyruvate, 300 μM NADH, 30 μg/ml pyruvate kinase and 10 μg/ml lactate dehydrogenase.
An assay stock buffer solution was prepared containing all of the reagents listed above, with the exception of SYK, DTT, and the test compound of interest of the present invention. 56 μl of the test reaction was placed in a 96 well plate followed by the addition of 1 μl of 2 mM DMSO stock containing the test compound of the present invnetion (final compound concentration 30 μM).

Row | SMILES | Ki [1] [µM] | Ki [2] [µM]
1 | CC(=O)Nc1cc(C)cc(Nc2nccc(-c3ncc(C)s3)n2)c1 [Example I-154] | ≤ 5 | ≤ 5
2 | Cc1cc(Nc2nccc(-c3ncc(C)s3)n2)cc(NS(C)(=O)=O)c1 [Example I-155] | ≤ 5 | ≤ 5
3 | COCc1cc(N)cc(Nc2nccc(-c3ncc(C)s3)n2)c1 [Example I-156] | ≤ 5 | ≤ 5
